{
  "source": "patent US20230414535A1",
  "about": "“PHARMACEUTICAL COMPOSITION COMPRISING UBIQUINONE-5 AND METHOD OF USE THEREOF” (The Trustees of Columbia University in the City of New York, priority 2021, published 2023)",
  "key": {"[1]": {"test_system": "isolated forebrain mitochondria", "test": "Oligomycin-induced state 4 respiration and ΔΨm in isolated forebrain mitochondria", "assay_type": "biochemical", "settings": "for effect on GABA- or Ub5-induced respiration/leak: added after GABA or Ub5, picrotoxin 1 mM, PLP 10 mM", "procedure": "Turning to FIGS. 10a and b, oligomycin-induced state 4 was initiated in isolated forebrain mitochondria using succinate. Tracings of O2 consumption (FIG. 10a) with simultaneous ΔΨm measurement (FIG. 10b) are depicted. Numbers (FIG. 10a) are rates of respiration (nmol·mL-1·min-1·mg mitochondrial protein-1). GABA (10 mM) or Ub5 ([…]) were added. Aralar was inhibited with pyridoxal 5′-phosphate (PLP)(10 mM). Picrotoxin (GABAA receptor antagonist (1 mM)) and GABA or Ub5 alone served as controls. Black solid lines are slopes of ΔΨm prior to and after inhibitor. Decrease in respiration rate with concomitant stabilization or rise in ΔΨm indicates inhibition of leak. […] Thus, PLP blocked GABA import via Aralar. […] Aralar is best described as an aspartate-glutamate carrier within mitochondria. Aralar is the solute that exports aspartate from neuronal mitochondria in exchange for glutamate plus a proton. Thus, Aralar causes leak by translocating protons across the inner mitochondrial membrane during solute transport. Aralar causes leak that can degrade ΔΨm. Aralar is a neuronal transporter that sequesters GABA within the mitochondrial matrix. Many anesthetic agents bind to the GABAA receptor and potentiate GABAergic signaling."}, "isolated mitochondria": {"test_system": "isolated mitochondria", "test": "Complex II-dependent state 4 (leak) respiration with simultaneous mitochondrial membrane potential measurement", "assay_type": "biochemical", "settings": "succinate in the presence of oligomycin, FIG. 1", "description": "FIGS. 1a-c are representative tracings of complex II-dependent state 4 respiration (leak respiration) using succinate in the presence of oligomycin are depicted above and tracings of simultaneously measured mitochondrial membrane potential (ΔΨ) are shown below, for (a) propofol, (b) decylubiquinone, and (c) ubiquinone-5;\nIn FIG. 1, representative tracings of Complex II-dependent state 4 respiration (leak respiration) using succinate in the presence of oligomycin are depicted in the top three curves and tracings of simultaneously measured mitochondrial membrane potential (ΔΨ) are shown in the bottom three curves. The numbers in the tracings above show rates of oxygen consumption (nmol·mL-1·min-1·mg mitochondrial protein-1). Addition of propofol (FIG. 1 a) decylubiquinone (DB) (FIG. 1b) or ubiquinone-5 (FIG. 1c) are indicated. ΔΨ was determined as a function of triphenylphosphonium (TPP+) concentration in the bath. […] This mechanism is highly reminiscent of the effect of the anesthetic, propofol (FIG. 1a), in isolated mitochondria."}, "[2]": {"test_system": "isolated perfused murine hearts", "test": "Surface ECG of isolated perfused murine hearts", "settings": "isolated perfused heart", "procedure": "In FIGS. 2a and 2b, surface ECGs were recorded continuously for isolated perfused murine hearts that were prepared and stabilized. Hearts were exposed to either decylubiquinone or ubiquione-5. […] Thus, quinone analogs suppressed electrical signaling in the heart in a reversible manner."}},
  "data": [
    {"compound": "NCCCC(=O)O", "note": "[GABA]", "values": [
      {"measurement": "proton leak (respiration and ΔΨm)", "setting": "[1]; succinate, oligomycin-induced state 4, GABA (10 mM) or Ub5 (100 mM), FIG. 10", "value": "induced a slow increase in proton leak"}
    ]},
    {"compound": "Picrotoxin", "values": [
      {"measurement": "effect on GABA- or Ub5-induced respiration/leak", "setting": "[1]", "value": "minimal effect"}
    ]},
    {"compound": "CCCCCCCCCCC1=C(C)C(=O)C(OC)=C(OC)C1=O", "note": "[decylubiquinone]", "values": [
      {"measurement": "proton leak (state 4 respiration)", "setting": "isolated mitochondria", "value": "increased proton leak"},
      {"measurement": "mitochondrial membrane potential (ΔΨ)", "setting": "isolated mitochondria; determined via TPP+", "value": "decline in ΔΨ"},
      {"measurement": "ECG upon cessation of exposure and washout", "setting": "[2]; after washout", "value": "sinus rhythm normalized"},
      {"measurement": "surface ECG effect during exposure", "setting": "[2]; during exposure, FIG. 2", "value": "rapidly induced bradycardia that persisted throughout the duration of exposure"}
    ]},
    {"compound": "Cc1ncc(COP(=O)(O)O)c(C=O)c1O", "note": "[PLP, pyridoxal 5′-phosphate]", "values": [
      {"measurement": "effect on ΔΨm after GABA or Ub5", "setting": "[1]; PLP 10 mM added after GABA or Ub5", "value": "stabilized ΔΨm"},
      {"measurement": "effect on ΔΨm with Ub5", "setting": "[1]; PLP 10 mM added after Ub5", "value": "acutely increased ΔΨm"},
      {"measurement": "effect on GABA- or Ub5-induced respiration/leak", "setting": "[1]", "value": "normalized respiration to pre-GABA or Ub5 levels"}
    ]}
  ]
}
